Active and inactive are the calls of the source. No cut-off for these calls is given here.
What was measured:
HT-29 [1] = experiment: Antiproliferative activity against human HT29 cells; type: functional
M21 [2] = experiment: Effect on thioredoxin-1 nuclear translocation in human M21 cells at 50 uM by immunocytochemistry analysis; type: functional, cell-based
M21 [3] = experiment: Antiproliferative activity against human M21 cells; type: functional
MCF7 [4] = experiment: Cell cycle arrest in human MCF7 cells assessed as increase in G2/M phase accumulation at 50 uM after 16 hrs by FACS analysis; type: functional
MCF7 [5] = experiment: Cell cycle arrest in human MCF7 cells assessed as increase in G0/G1 phase accumulation at 50 uM after 16 hrs by FACS analysis; type: functional
MCF7 [6] = experiment: Antiproliferative activity against human MCF7 cells; type: functional
MCF7 [7] = experiment: Cell cycle arrest in human MCF7 cells assessed as increase in S phase accumulation at 50 uM after 16 hrs by FACS analysis; type: functional
MCF7 [8] = experiment: Cell cycle arrest in human MCF7 cells assessed as increase in G0/G1 phase accumulation at 0.1 uM after 16 hrs by FACS analysis; type: functional
MCF7 [9] = experiment: Cell cycle arrest in human MCF7 cells assessed as increase in G2/M phase accumulation at 0.1 uM after 16 hrs by FACS analysis; type: functional
MCF7 [10] = experiment: Cell cycle arrest in human MCF7 cells assessed as increase in S phase accumulation at 0.1 uM after 16 hrs by FACS analysis; type: functional
MCF7 [11] = experiment: Cell cycle arrest in human MCF7 cells assessed as increase in S phase accumulation at 25 uM after 16 hrs by FACS analysis; type: functional
M21 [12] = experiment: Effect on thioredoxin-1 nuclear translocation in human M21 cells at 25 uM by immunocytochemistry analysis; type: functional, cell-based
MCF7 [13] = experiment: Cell cycle arrest in human MCF7 cells assessed as increase in G0/G1 phase accumulation at 25 uM after 16 hrs by FACS analysis; type: functional
MCF7 [14] = experiment: Cell cycle arrest in human MCF7 cells assessed as increase in G2/M phase accumulation at 25 uM after 16 hrs by FACS analysis; type: functional
HT-29 [15] = experiment: Antiproliferative activity against human HT29 cells at 100 uM; type: functional, cell-based
MCF7 [16] = experiment: Antiproliferative activity against human MCF7 cells at 100 uM; type: functional, cell-based
M21 [17] = experiment: Antiproliferative activity against human M21 cells at 100 uM; type: functional, cell-based
MCF7 [18] = experiment: Cell cycle arrest in human MCF7 cells assessed as increase in G0/G1 phase accumulation at 1 time GI50 after 25 hrs by flow cytometry; type: functional, cell-based
M21 [19] = experiment: Effect on thioredoxin-1 nuclear translocation in human M21 cells at 30 uM after 24 hrs by Western blot analysis; type: functional, cell-based
MCF7 [20] = experiment: Cell cycle arrest in human MCF7 cells assessed as increase in G0/G1 phase accumulation at 4 times GI50 after 25 hrs by flow cytometry; type: functional, cell-based
M21 [21] = experiment: Effect on thioredoxin-1 nuclear translocation in human M21 cells at 50 uM after 24 hrs by Western blot analysis; type: functional, cell-based
MCF7 [22] = experiment: Cell cycle arrest in human MCF7 cells assessed as increase in G0/G1 phase accumulation at 2 times GI50 after 25 hrs by flow cytometry; type: functional, cell-based
MCF7 [23] = experiment: Cell cycle arrest in human MCF7 cells assessed as increase in G2/M phase accumulation at 2 times GI50 after 25 hrs by flow cytometry; type: functional, cell-based
MCF7 [24] = experiment: Cell cycle arrest in human MCF7 cells assessed as increase in G2/M phase accumulation at 4 times GI50 after 25 hrs by flow cytometry; type: functional, cell-based
MCF7 [25] = experiment: Cell cycle arrest in human MCF7 cells assessed as increase in G2/M phase accumulation at 1 time GI50 after 25 hrs by flow cytometry; type: functional, cell-based
M21 [26] = experiment: Effect on thioredoxin-1 nuclear translocation in human M21 cells at 25 uM after 24 hrs by Western blot analysis; type: functional, cell-based

Row | SMILES | GI50 (HT-29 [1]) [µM] | Activity (M21 [2]) | GI50 (M21 [3]) [µM] | Activity (MCF7 [4]) [%] | Activity (MCF7 [5]) [%] | GI50 (MCF7 [6]) [µM] | Activity (MCF7 [7]) [%] | further results
1 | O=C(NCCCl)Nc1ccc(OC2CCCCC2)cc1 | 23 | Active | 36 | 14 | 57 | 45 | 29 | –
2 | COc1cc2c(c(OC)c1OC)-c1ccc(OC)c(=O)cc1[C@@H](NC(C)=O)CC2 [COLCHICINE] | – | – | – | – | – | – | – | Activity (MCF7 [8]): 19%; Activity (MCF7 [9]): 62%; Activity (MCF7 [10]): 19%
3 | O=C(NCCCl)Nc1ccc(OC2CCCCCC2)cc1 | 12.5 | Active | 18 | 6 | 75 | 19 | 19 | –
4 | O=C(NCCCl)Nc1ccc(I)cc1 | – | – | – | – | – | – | – | Activity (MCF7 [11]): 33%; Activity (M21 [12]): Active; Activity (MCF7 [13]): 25%; Activity (MCF7 [14]): 42%
5 | O=C(NCCCl)Nc1cccc(OC2CCCCC2)c1 | 7.9 | Active | 20 | 8 | 59 | 25 | 33 | –
6 | O=C(NCCCl)Nc1ccc2ccccc2c1 | 1.9 | Active | 4.1 | 45 | 17 | 5.6 | 38 | –
7 | CCNC(=O)Nc1ccc(C2CCCCC2)cc1 | – | – | – | 22 | 55 | – | 23 | Activity (HT-29 [15]): inactive; Activity (MCF7 [16]): inactive; Activity (M21 [17]): inactive
8 | O=C(NCCCl)Nc1ccc(OC2CCCC2)cc1 | 31 | Active | 38 | 9 | 72 | 49 | 19 | –
9 | O=C(NCCCl)Nc1cccc(OC2CCCCCC2)c1 | 10.7 | Active | 20 | 6 | 72 | 21 | 22 | –
10 | CCC(C)SSc1ncc[nH]1 (stereo not drawn) [PX-12] | 25 | – | 8.3 | – | – | 8.3 | – | Activity (MCF7 [11]): 13%; Activity (MCF7 [13]): 29%; Activity (MCF7 [14]): 58%
11 | O=C(NCCCl)Nc1ccc(Oc2ccccc2)cc1 | 2.4 | – | 5.2 | – | – | 9.1 | – | Activity (MCF7 [11]): 20%; Activity (M21 [12]): inactive; Activity (MCF7 [13]): 15%; Activity (MCF7 [14]): 65%
12 | O=C(NCCCl)NC1c2ccccc2-c2ccccc21 | 19 | Active | 27 | 8 | 63 | 22 | 29 | –
13 | O=C(NCCCl)Nc1ccc(C2CCCCC2)cc1 | 12.6 | Active | 21 | 13 | 71 | 21 | 16 | Activity (MCF7 [18]): Active; Activity (M21 [19]): Active; Activity (MCF7 [20]): Active; Activity (M21 [21]): Active; Activity (MCF7 [22]): Active
14 | O=C(NCCCl)Nc1cccc(OC2CCCC2)c1 | 9.9 | Active | 22 | 12 | 64 | 35 | 24 | –
15 | O=C(NCCCl)Nc1cccc(Oc2ccccc2)c1 | 5.6 | inactive | 16 | 30 | 44 | 24 | 26 | –
16 | O=C(NCCCl)Nc1ccc2c(c1)CCC2 | 3.6 | – | 8 | – | – | 14.1 | – | Activity (MCF7 [11]): 29%; Activity (MCF7 [13]): 31%; Activity (MCF7 [23]): Active; Activity (MCF7 [24]): Active; Activity (MCF7 [14]): 40%; Activity (MCF7 [25]): Active
17 | CC(=O)O[C@H]1C(=O)[C@@]2(C)[C@H]([C@H](OC(=O)c3ccccc3)[C@]3(O)C[C@H](OC(=O)[C@H](O)[C@@H](NC(=O)c4ccccc4)c4ccccc4)C(C)=C1C3(C)C)[C@]1(OC(C)=O)CO[C@@H]1C[C@@H]2O [PACLITAXEL] | – | – | – | – | – | – | – | Activity (MCF7 [8]): 9%; Activity (MCF7 [9]): 80%; Activity (MCF7 [10]): 11%
18 | CC(C)(C)c1ccc(NC(=O)NCCCl)cc1 | – | – | – | – | – | – | – | Activity (MCF7 [11]): 24%; Activity (MCF7 [13]): 17%; Activity (M21 [19]): inactive; Activity (M21 [26]): inactive; Activity (MCF7 [14]): 58%

— ChEMBL document CHEMBL1145584, “Cycloalkyl-substituted aryl chloroethylureas inhibiting cell cycle progression in G0/G1 phase and thioredoxin-1 nuclear translocation” (2008)
